# In ChEMBL document CHEMBL6134780, “Halogenated retinoid derivatives as dual RARα and RXRα modulators for treating acute promyelocytic leukemia cells” (Eur J Med Chem, 2024):
# Activity calls are given as the source filed them. No cut-off for these calls is given here.
# Key:
# [1] = Induction of apoptosis in human ATRA-resistant NB4-LR2 cells assessed as necrotic cells at 1 uM incubated for 24 hrs by Annexin V-FITC/PI staining based flow cytometric analysis (reference value: 0.08 %); assay type: functional
# NB-4 [2] = test: Induction of apoptosis in human NB4 cells at 2 uM incubated for 3 hrs by Western blot analysis; assay type: functional, cell-based
# [3] = target: Peroxisome proliferator-activated receptor gamma (Homo sapiens) (UniProt P37231); test: Agonist activity at Gal4-fused full length PPARgamma LBD (unknown origin) transfected in HEK293T cells co-transfected with pG5luc reporter and Renilla-luc at 0.1 to 1 uM incubated for 12 hrs by luciferase reporter gene assay; assay type: cell-based; conditions: dose 0.1-1 µM
# Peroxisome proliferator-activated receptor gamma (Homo sapiens), sequence (P37231 whole entry, the tested form may be a part): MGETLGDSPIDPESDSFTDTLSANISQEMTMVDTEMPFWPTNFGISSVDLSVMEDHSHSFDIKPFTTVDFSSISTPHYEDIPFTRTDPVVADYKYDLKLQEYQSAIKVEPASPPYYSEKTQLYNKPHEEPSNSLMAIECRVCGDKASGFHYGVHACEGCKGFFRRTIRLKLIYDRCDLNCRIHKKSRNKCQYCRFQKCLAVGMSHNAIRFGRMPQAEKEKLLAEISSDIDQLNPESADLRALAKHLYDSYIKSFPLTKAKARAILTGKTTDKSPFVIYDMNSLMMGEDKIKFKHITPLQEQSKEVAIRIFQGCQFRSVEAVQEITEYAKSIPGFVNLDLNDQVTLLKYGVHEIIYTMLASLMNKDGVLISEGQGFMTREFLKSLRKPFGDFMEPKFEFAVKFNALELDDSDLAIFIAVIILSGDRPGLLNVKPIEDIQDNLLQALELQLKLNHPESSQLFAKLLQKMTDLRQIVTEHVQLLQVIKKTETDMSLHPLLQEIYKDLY
# NB-4 [4] = test: Antiproliferative activity against human NB4 cells assessed as inhibition of cell viability incubated for 3 days by CCK8 assay; assay type: functional, cell-based; conditions: dose <= 3.5 µM, time 3.0 day
# [5] = target: T1, Retinoic acid receptor RXR-gamma (Homo sapiens) (UniProt P48443); test: Competitive binding affinity to Gal4-fused full length RXRgamma LBD (unknown origin) transfected in HEK293T cells co-transfected with pG5luc reporter and Renilla-luc at 0.1 to 1 uM incubated for 12 hrs in presence of ATRA by luciferase reporter gene assay; assay type: cell-based; conditions: dose 0.1-1 µM
# T1 sequence (whole entry): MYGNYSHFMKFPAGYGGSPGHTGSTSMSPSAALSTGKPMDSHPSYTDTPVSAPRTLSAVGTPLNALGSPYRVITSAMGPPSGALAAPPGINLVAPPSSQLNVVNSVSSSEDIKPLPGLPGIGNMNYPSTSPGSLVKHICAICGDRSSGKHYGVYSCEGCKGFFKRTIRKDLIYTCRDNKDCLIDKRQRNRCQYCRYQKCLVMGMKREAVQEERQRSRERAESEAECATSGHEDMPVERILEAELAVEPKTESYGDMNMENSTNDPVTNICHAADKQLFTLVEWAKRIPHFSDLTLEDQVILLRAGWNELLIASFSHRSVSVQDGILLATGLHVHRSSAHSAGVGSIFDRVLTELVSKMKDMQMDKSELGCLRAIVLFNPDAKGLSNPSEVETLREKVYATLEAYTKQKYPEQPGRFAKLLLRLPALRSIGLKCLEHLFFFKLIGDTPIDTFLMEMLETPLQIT
# K562 [6] = test: Induction of apoptosis in human K562 cells assessed as viable cells at 2 uM incubated for 24 hrs by Annexin V-FITC/PI staining based flow cytometric analysis (reference value: 90.02 %); assay type: functional; conditions: read-out: Activity
# K562 [7] = test: Induction of cell differentiation in human K562 cells at 0.5 uM incubated for 6 days by CD11b staining based flow cytometric analysis; assay type: functional; conditions: time 6.0 day
# ATRA-resistant NB4-LR2 [8] = test: Cell cycle arrest in human ATRA-resistant NB4-LR2 cells assessed as increase in PLK1 expression at 2 uM incubated for 3 to 24 hrs by Western blot analysis; assay type: functional, cell-based; conditions: time 3-24 hrs
# [9] = target: T2, Retinoic acid receptor alpha (Homo sapiens, UniProt P10276); test: Agonist activity at Gal4-fused full length human RARalpha LBD transfected in HEK293T cells co-transfected with pG5luc reporter and Renilla-luc assessed as transactivation incubated for 12 hrs by dual luciferase reporter gene assay; assay type: cell-based
# T2 sequence (P10276 whole entry): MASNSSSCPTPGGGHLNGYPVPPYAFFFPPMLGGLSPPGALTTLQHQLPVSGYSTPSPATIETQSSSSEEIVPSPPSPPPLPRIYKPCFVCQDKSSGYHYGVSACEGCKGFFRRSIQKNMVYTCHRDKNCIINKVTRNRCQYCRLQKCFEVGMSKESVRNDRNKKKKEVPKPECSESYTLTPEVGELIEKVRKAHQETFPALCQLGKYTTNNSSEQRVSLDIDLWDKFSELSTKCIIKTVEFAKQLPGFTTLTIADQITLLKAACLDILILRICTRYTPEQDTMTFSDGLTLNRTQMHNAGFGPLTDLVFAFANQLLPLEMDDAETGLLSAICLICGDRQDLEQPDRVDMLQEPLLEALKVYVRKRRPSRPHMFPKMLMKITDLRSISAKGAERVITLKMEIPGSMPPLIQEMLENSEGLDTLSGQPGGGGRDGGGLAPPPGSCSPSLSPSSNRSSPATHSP
# [10] = Induction of apoptosis in human ATRA-resistant NB4-LR2 cells assessed as late apoptotic cells at 1 uM incubated for 24 hrs by Annexin V-FITC/PI staining based flow cytometric analysis (reference value: 7.23 %); assay type: functional
# [11] = target: Estrogen receptor (Homo sapiens) (UniProt P03372); test: Agonist activity at Gal4-fused full length ERalpha LBD (unknown origin) transfected in HEK293T cells co-transfected with pG5luc reporter and Renilla-luc at 0.1 to 1 uM incubated for 12 hrs by luciferase reporter gene assay; assay type: cell-based; conditions: dose 0.1-1 µM
# Estrogen receptor (Homo sapiens), sequence (P03372 whole entry, the tested form may be a part): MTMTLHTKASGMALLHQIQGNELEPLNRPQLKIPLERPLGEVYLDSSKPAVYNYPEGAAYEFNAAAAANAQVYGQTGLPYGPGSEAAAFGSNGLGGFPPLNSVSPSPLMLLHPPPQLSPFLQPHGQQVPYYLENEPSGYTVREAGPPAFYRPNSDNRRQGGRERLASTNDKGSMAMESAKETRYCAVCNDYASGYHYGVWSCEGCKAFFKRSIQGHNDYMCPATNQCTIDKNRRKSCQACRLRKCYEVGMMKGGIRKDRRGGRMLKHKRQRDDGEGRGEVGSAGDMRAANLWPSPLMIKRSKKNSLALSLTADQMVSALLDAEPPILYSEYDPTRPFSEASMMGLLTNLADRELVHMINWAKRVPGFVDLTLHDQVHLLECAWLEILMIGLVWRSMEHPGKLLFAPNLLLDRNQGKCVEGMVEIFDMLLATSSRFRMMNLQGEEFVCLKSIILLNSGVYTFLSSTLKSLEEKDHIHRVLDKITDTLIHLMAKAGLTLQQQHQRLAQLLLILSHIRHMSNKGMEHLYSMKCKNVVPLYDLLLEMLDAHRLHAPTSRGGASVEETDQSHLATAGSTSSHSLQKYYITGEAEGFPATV
# K562 [12] = test: Induction of apoptosis in human K562 cells assessed as early apoptotic cells at 2 uM incubated for 24 hrs by Annexin V-FITC/PI staining based flow cytometric analysis (reference value: 0.91 %); assay type: functional
# ATRA-resistant NB4-LR2 [13] = test: Induction of apoptosis in human ATRA-resistant NB4-LR2 cells assessed as PARP cleavage at 0.5 uM incubated for 24 hrs by Western blot analysis; assay type: functional, cell-based
# [14] = target: T3, Retinoic acid receptor gamma (Homo sapiens, UniProt P13631); test: Agonist activity at Gal4-fused full length human RARgamma LBD transfected in HEK293T cells co-transfected with pG5luc reporter and Renilla-luc assessed as transactivation incubated for 12 hrs by dual luciferase reporter gene assay; assay type: cell-based; conditions: read-out: EC50
# T3 sequence (P13631 whole entry): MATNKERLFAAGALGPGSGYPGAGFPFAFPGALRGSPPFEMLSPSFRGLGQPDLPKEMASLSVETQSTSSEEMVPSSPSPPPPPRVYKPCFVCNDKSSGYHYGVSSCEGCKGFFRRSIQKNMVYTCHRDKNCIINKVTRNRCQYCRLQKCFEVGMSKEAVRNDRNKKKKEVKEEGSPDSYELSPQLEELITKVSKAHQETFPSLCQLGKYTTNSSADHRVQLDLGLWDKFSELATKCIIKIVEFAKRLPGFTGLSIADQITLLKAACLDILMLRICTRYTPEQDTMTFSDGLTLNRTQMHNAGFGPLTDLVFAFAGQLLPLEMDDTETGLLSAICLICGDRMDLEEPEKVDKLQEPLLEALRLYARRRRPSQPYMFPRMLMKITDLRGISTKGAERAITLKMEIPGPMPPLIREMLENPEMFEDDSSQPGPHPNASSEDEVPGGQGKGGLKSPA
# NB-4 [15] = test: Induction of mitosis in human NB4 cells assessed as upregulation of pT210-PLK1 expression at 2 uM measured after 3 hrs by Western blot analysis; assay type: functional, cell-based
# NB-4 [16] = test: Cell cycle arrest in human NB4 cells assessed as accumulation of cells at sub-G1 phase at 0.5 uM incubated for 6 days for DAPI staining based flow cytometric analysis (reference value: 6 %); assay type: functional; conditions: time 6 day
# K562 [17] = test: Induction of apoptosis in human K562 cells assessed as early apoptotic cells at 1 uM incubated for 24 hrs by Annexin V-FITC/PI staining based flow cytometric analysis (reference value: 0.91 %); assay type: functional
# NB-4 [18] = test: Induction of cell differentiation in human NB4 cells assessed as NBT positive cells at 0.5 uM incubated for 6 days by Nitro Blue tetrazolium chloride based microscopic analysis (reference value: 0 %); assay type: functional; conditions: time 6 day
Activity [3],EC50 [9],Activity [11],EC50 [14],Compound,Activity [1],Activity (NB-4 [2]),Activity (NB-4 [4]),Activity [5],viability at 2 µM (K562 [6]),Activity (K562 [7]),Activity (ATRA-resistant NB4-LR2 [8]),Activity [10],Activity (K562 [12]),Activity (ATRA-resistant NB4-LR2 [13]),Activity (NB-4 [15]),Activity (NB-4 [16]),Activity (K562 [17]),Activity (NB-4 [18])
Weak_effect,424 nM,Minimal_effect,2240 nM,Cc1cc2c(cc1C(=O)/C(Br)=C/c1ccc(C(=O)O)cc1)C(C)(C)CCC2(C)C,1.44%,inactive,Dose-dependent-effect,Not active; No Significant Competitive Effect On Atra Activation Observed,88.6%,inactive,Active,13.3%,1.18%,Active,Active,9%,1%,64%
Weak_effect,419 nM,Minimal_effect,1140 nM,Cc1cc2c(cc1C(=O)/C(Br)=C\c1ccc(C(=O)O)cc1)C(C)(C)CCC2(C)C,0.49%,inactive,Dose-dependent-effect,Not active; No Significant Competitive Effect On Atra Activation Observed,88.8%,inactive,Active,11.42%,1.05%,Active,Active,6%,0.71%,69%
